# According to US20090222080A1, “MEDICAL STENT PROVIDED WITH INHIBITORS OF TUMOR NECROSIS FACTOR-ALPHA” (Picarus NV SA, priority 2005, published 2009):
# Assays:
# ApoE*3-Leiden mice = assay: mouse femoral artery cuff model of restenosis (neointima formation); type: in vivo; settings: cuff around the femoral artery for 14 days, cuffs loaded with 1% (w/w) thalidomide, p=0.005
# Source text: (§1) For the mouse study, ApoE*3-Leiden mice and TNF knockout mice were used to determine the impact of TNF-alpha on restenosis development after cuff placement around the femoral artery for 14 days. In another ApoE*3-Leiden mice group the cuffs were loaded with 1% (w/w) thalidomide, a TNF biosynthesis inhibitor.
# TNF protein = assay: vascular levels of TNF protein after local thalidomide in the mouse cuff model; type: in vivo, mice; settings: thalidomide administered locally (cuff)
# Procedure: as §1
# Furthermore, the vascular levels of TNF protein were decreased when thalidomide was administered locally.
smiles,measurement,setting,value
"O=C1CCC(N2C(=O)c3ccccc3C2=O)C(=O)N1 (centres unmarked) [thalidomide, 2-(2,6-dioxo-3-piperidinyl)-1H-isoindole-1,3(2H)-dione]",neointima formation,ApoE*3-Leiden mice,significantly less neointima formation
same,vascular levels of TNF protein,TNF protein,decreased
